Test results published in patent US20110124607A1, “COMPOSITION FOR REGULATION CELLULAR SENESCENCE COMPRISING LYSOPHOSPHATIDIC ACID AND INHIBITOR OF ADENYLYL CYCLASE AS ACTIVE INGREDIENTS” (priority 2008, published 2011).

How the values were obtained:
[1] = test system: young cells (human fibroblasts); test: Cell proliferation by counting live cells (trypan blue), young cells; type: cell-based; settings: serum-starved 2 days, counted day 1, 2, 4, 30 μM LPA, 300 μM ACI, 10 mM AMPKI, 10 mM AICAR
Procedure: (§1) Human fibroblasts were prepared by primary culture of foreskin of a newborn baby (Boyce and Ham, 1983). The primary culture was performed in DMEM supplemented with 10% FBS and 1% antibiotics. The protein contents of young cells from the early stage of sub-culture, with a population doubling (PD) of less than 25, were compared to those of at least PD 65-70 senescent cells. […] In senescent cells, the activity of beta-galactosidase was increased and cell proliferation was reduced (Yeo et al., 2000).
(§2) Prior to LPA and ACI treatment, cells were grown for 1-2 days to 60-70% sub-confluence in DMEM-containing culture medium, and then serum-starved to quiescence (that is Go/G1 arrest) by incubation in a serum-free medium containing 0.1% bovine serum albumin (BSA) for 2 days. Young and senescent cells were treated with LPA, ACI, LPA+ACI, AMPKI and AICAR, respectively. Live cells were measured after staining the cells with trypan blue on day 1, day 2 and day 4 to confirm cell proliferation.
(§3) Cell proliferation and cAMP level were increased by LPA in senescent cells (Yeo et al., 2002). The AC inhibitor (ACI) was added to reduce cAMP which had been increased by LPA. And then, cell proliferation was investigated. Cells were cultured in serum-free medium for 2 days to arrest them in G0/G1 phase. Then, the cells were treated with LPA, ACI or LPA+ACI. Total cell number was measured on day 1, day 2 and day 4, or the cells entered into S phase were counted to evaluate cell proliferation. When young cells were treated with 300 μM of ACI, cell proliferation was reduced, compared with control (FIG. 1A). In the meantime, when senescent cells were treated with 300 μM of ACI, cell proliferation was increased, compared with control (FIG. 1B).

[2] = test system: fibroblasts (young and senescent cells); test: Soft agar assay (colony formation); type: cell-based, human; settings: 30 μM LPA, 300 μM ACI, three weeks
Procedure: Young and senescent cells were distributed in DMEM containing 10% bovine serum and 0.3% top agar, which were loaded on 0.6% basic agar layer in 60 mm culture dish. The cells treated with 30 μM LPA (L), 300 μM ACI (A), or both LPA and ACI for three weeks were fixed with 70% ethanol, and so was the control treated with nothing. After staining the cells with trypan blue, colonies were counted under microscope. HeLa and HepG2 cancer cell lines were distributed on soft agar dish, as positive controls, followed by treatment with LPA, ACI, or LPA+ACI. Colony formation was also analysed. The number of colonies formed in soft agar dish was plotted as mean+/− standard deviation and each measurement was repeated at least three times.
LPA and ACI were treated to fibroblast and cancer cell groups, followed by soft agar assay. […] From the above results, it was confirmed that LPA and ACI induce normal cell proliferation but not cause any transformation of cells to turn them into tumor.

p-Ser15-p53 = test: Immuno-blotting of p-Ser15-p53; type: cell-based, human; settings: for p-Ser15-p53 expression after suppressing PKA: senescent cells pre-treated with 10 mM PKA inhibitor Rp-cAMP for one hour; for p-Ser15-p53 expression: senescent cells, 30 μM LPA, 300 μM ACI, 10 mM AMPKI, 10 mM AICAR
Procedure: (A) and (B): Young and senescent cells were serum-starved for 2 days, followed by treatment with 10 mM of AMPK inhibitor […]) or 10 mM of AMPK activator AICAR(B) for 4 days. Proteins were extracted from the treated cells and the levels of AMPKα and p-Thr172-AMPKα, total p53, p-Ser15-p53 and […] measured by immuno-blotting. (C) and (D): Young cells (C) and senescent cells (D) were treated with 10 mM AMPKI or 10 mM AICAR and cultured for 4 days, followed by measurement of cell proliferation by cell counting. At this time, the experiment was repeated three times (p<0.001). (A) and (B) are photographs illustrating the results of immuno-blotting. Precisely, sub-cultured young cells (PD 18: A) and senescent cells (PD 64: B) were treated with 30 μM of LPA […] and ACI singly or together, followed by further culture for 1, 2, and 4 days. Proteins were extracted from the cultured cells and the levels of AMPKα, […] β-actin were quantified by immuno-blotting. (A) and (B) are photographs illustrating the results of immuno-blotting. Precisely, senescent cells (PD 64) were pre-treated with 10 mM of PKA inhibitor Rp-cAMP for one hour, followed by treatment with LPA(A) or ACI(B). After culturing the cells for 1, 2, and 4 days, proteins were extracted from the cultured cells and the levels of AMPKα, […] β-actin were quantified by immuno-blotting using 45 μg of the protein. To analyse protein expression, human fibroblasts were lysed in cold lysis buffer (25 mM Hepes, pH 8.0, 150 mM NaCl, 1 mM EDTA, 1 mM Na3VO4, 1 mM NaF, 1% Triton X-100 and protease inhibitors), followed by centrifugation at 4° C. at 9,000 rpm for 10 minutes to obtain supernatant. Protein in the extract was quantified […]. SDS-PAGE electrophoresis was performed with equal amount of the protein (45 μg) to separate. The separated protein was transferred onto NC membrane from the electrophoresis gel. Non-specific protein binding was blocked by blocking the blot (transferred NC membrane) using TTBS […] containing 5% skim milk for one hour. Then, antigen-antibody reaction was induced with diluted primary antibody at 4° C. for overnight. The blot was washed with TTBS, followed by reaction with horseradish peroxidase conjugated anti-IgGs diluted in TTBS containing 5% skim milk (1:5000) at room temperature for one hour. The blot was washed again with TTBS to eliminate non-specific binding of antigen-antibody. Photographs were developed/printed on X-ray film (Kodak) using ECL kit (Pierce) containing peroxidase substrate to identify each protein.

[3] = test system: senescent cells (human fibroblasts); test: Cell proliferation by counting live cells (trypan blue), senescent cells; type: cell-based; settings: serum-starved 2 days, counted day 1, 2, 4, 30 μM LPA, 300 μM ACI, 10 mM AMPKI, 10 mM AICAR
Procedure: as §1, §2, §3

Molecule	cell proliferation (cell number) compared with control [1]	colony formation in soft agar (transformation) [2]	p-Ser15-p53 expression after suppressing PKA (p-Ser15-p53)	p-Ser15-p53 expression (p-Ser15-p53)	cell proliferation (cell number) compared with control [3]
Nc1ncnc2c1ncn2C1CCCO1 (stereo not shown) [ACI, 9-(tetrahydro-2′-furyl)adenine]	reduced	did not form any colony	not changed	reduced	increased
lysophosphatidic acid [LPA]	increased	did not form any colony	not changed at all	reduced	increase
